Laboratory results reported in publication PMC6969166, “The molecular basis of pyrazinamide activity on Mycobacterium tuberculosis PanD” (Nature Communications, 2020).

Molecular target: Mtb PanD Arg54 to alanine (Mycobacterium tuberculosis, UniProt P9WIL3, R54A)
Type: binding

O=C(O)c1cnccn1 [POA, pyrazinoic acid]
binding in ITC: no binding
